# Reference: patent publication US20100098631A1, “Novel-2-Heteroaryl Substituted Indoles 695” (ASTRAZENECA AB, priority 2007, published 2010)
# Biological target: T1, synthetic Aβ 1-40 (Homo sapiens, UniProt P05067)
# T1 construct: using synthetic Aβ 1-40 in 2.7 nM of [^3H]PIB
# Assay: Competition binding assay ([3H]PIB as radioligand)
# Conditions: [3H]PIB 2.7 nM as radioligand, synthetic Aβ 1-40, phosphate buffer pH 7.5, 30 min room temperature; read-out: IC50 in the competion binding assay
# Experimental: Competition binding was performed in 384-well FB filter plates using synthetic Aβ 1-40 in 2.7 nM of [^3H]PIB (or another ^3H-labeled radioligand when so mentioned) in phosphate buffer at pH 7.5, by adding various concentrations of non-radioactive compounds originally dissolved in DMSO. The binding mixture was incubated for 30 min at room temperature, followed by vacuum filtration, and subsequently by washing twice with 1% Triton-X100. Scintillation fluid was thereafter added to the collected Aβ 1-40 on the filter plate, and the activity of the bound remaining radioligand ([^3H]PIB or another ^3H-labeled radioligand) was measured using 1450 Microbeta from PerkinElmer. Specific binding was determined according to the competion binding assay described herein. The determined IC50's in the competion binding assays (using [^3H]PIB as radioligand) of compounds of the present invention are shown in Table 1.
# T1 sequence (P05067 672-711 limits assumed): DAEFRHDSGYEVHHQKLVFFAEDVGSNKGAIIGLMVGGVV
row,IC50,SMILES
1,5.37 µM,CC(C)(C)OC(=O)n1c(-c2ccc(C(N)=O)nc2)cc2cc(F)ccc21 [tert-Butyl 2-(6-carbamoylpyridin-3-yl)-5-fluoro-1H-indole-1-carboxylate]
2,0.141 µM,COC(=O)c1ccc(-c2cc3cc(OC)ccc3[nH]2)nc1 [Methyl 6-(5-methoxy-1H-indol-2-yl)-nicotinate]
3,0.14 µM,COC(=O)c1ccc(-c2cc3cc(O)ccc3[nH]2)nc1 [6-(5-Hydroxy-1H-indol-2-yl)-Nicotinic Acid Methyl Ester]

# Second part, the compound before the results:
row,SMILES,IC50
1,"NC(=O)c1ccc(-c2cc3ccccc3[nH]2)cn1 [5-(1H-indol-2-yl)pyridine-2-carboxamide, 5-(1H-Indol-2-yl)pyridine-2-carboxamide]",0.143 µM
2,CNc1ccc(-c2cc3cc(OC)ccc3[nH]2)cn1 [5-(5-Methoxy-1H-indol-2-yl)—N-methylpyridin-2-amine],0.201 µM
3,CNc1ccc(-c2cc3cc(F)ccc3[nH]2)cn1 [5-(5-Fluoro-1H-indol-2-yl)—N-methylpyridin-2-amine],0.152 µM
4,CNc1ccc(-c2cc3cc(O)ccc3[nH]2)cn1 [2-[6-(Methylamino)pyridin-3-yl]-1H-indol-5-ol],0.736 µM
